Data taken from publication PMC8062304 (Journal of the American Chemical Society, 2021).

Columns and labels:
carboxypeptidase Y = molecular target: T1, carboxypeptidase Y (Saccharomyces cerevisiae, UniProt P00729); type: in vitro ADME; conditions: after 2 h at 95 °C; CFB-produced lasso peptide from native BGC; Figure S7
T1 sequence (P00729 112-532): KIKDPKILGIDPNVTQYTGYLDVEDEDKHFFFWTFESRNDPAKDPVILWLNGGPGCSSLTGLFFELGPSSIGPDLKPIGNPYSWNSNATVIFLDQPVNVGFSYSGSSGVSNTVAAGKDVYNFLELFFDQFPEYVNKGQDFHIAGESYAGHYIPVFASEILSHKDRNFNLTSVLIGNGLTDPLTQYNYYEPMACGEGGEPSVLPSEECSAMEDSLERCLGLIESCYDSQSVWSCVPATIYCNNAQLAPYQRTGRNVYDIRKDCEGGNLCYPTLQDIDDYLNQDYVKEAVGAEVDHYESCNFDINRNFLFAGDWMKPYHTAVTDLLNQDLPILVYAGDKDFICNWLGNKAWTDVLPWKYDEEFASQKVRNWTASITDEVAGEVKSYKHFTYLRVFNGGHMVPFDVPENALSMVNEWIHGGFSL

[1] = system: transcription/translation (production of the fluorescent protein mCherry); type: biochemical, E. coli; conditions: CFB-produced capistruin supplied at 10 µM; compared to a control that omitted capistruin; fluorescence reporter
[2] = cited from earlier work

Substance	carboxypeptidase Y resistance after prolonged heating (carboxypeptidase Y)	reduction in mCherry production [1] [%]	conformation after extended exposure to organic solvent [2]
cellulassin	efficient carboxypeptidase Y digestion	–	–
capistruin (GTPGFQTPDARVISRFGFN; Capistruin; UniProt P0DQM5 29-47, looked up)	–	66	–
fusilassin	efficient carboxypeptidase Y digestion	–	adopted a branched-cyclic form
burhizin	retained protease resistance	–	–
